# According to ChEMBL document CHEMBL3734705, “Synthesis and in vitro cytotoxicity of novel C-12 substituted-14-deoxy-andrographolide derivatives as potent anti-cancer agents” (2015):
# Legend:
# [1] = test system: NCI-H23; experiment: Cytotoxicity against human NCI-H23 cells assessed as growth level at 10 uM after 48 hrs by SRB assay; assay type: functional
# [2] = test system: 786-0; experiment: Cytotoxicity against human 786-0 cells assessed as growth level at 10 uM after 48 hrs by SRB assay; assay type: functional
# [3] = Cytotoxicity against human SNB75 cells assessed as growth level at 10 uM after 48 hrs by SRB assay; assay type: functional, SNB-75
# [4] = test system: SN12C; experiment: Cytotoxicity against human SN12C cells assessed as growth level at 10 uM after 48 hrs by SRB assay; assay type: functional
# [5] = test system: MDA-MB-468; experiment: Cytotoxicity against human MDA-MB-468 cells assessed as growth level at 10 uM after 48 hrs by SRB assay; assay type: functional
# [6] = Cytotoxicity against human HCT116 cells assessed as growth level at 10 uM after 48 hrs by SRB assay; assay type: functional, HCT-116
# [7] = test system: Malme-3M; experiment: Cytotoxicity against human MALME-3M cells assessed as growth level at 10 uM after 48 hrs by SRB assay; assay type: functional
# [8] = Cytotoxicity against human LOXIMVI cells assessed as growth level at 10 uM after 48 hrs by SRB assay; assay type: functional, LOX IMVI
# [9] = test system: CCRF-CEM; experiment: Cytotoxicity against human CCRF-CEM cells assessed as growth level at 10 uM after 48 hrs by SRB assay; assay type: functional
# [10] = Cytotoxicity against human UACC62 cells assessed as growth level at 10 uM after 48 hrs by SRB assay; assay type: functional, UACC-62
# [11] = Cytotoxicity against human SF295 cells assessed as growth level at 10 uM after 48 hrs by SRB assay; assay type: functional, SF-295
# [12] = Cytotoxicity against human DU145 cells assessed as growth level at 10 uM after 48 hrs by SRB assay; assay type: functional, DU-145
# [13] = Cytotoxicity against human SW620 cells assessed as growth level at 10 uM after 48 hrs by SRB assay; assay type: functional, SW-620
# [14] = Cytotoxicity against human BT549 cells assessed as growth level at 10 uM after 48 hrs by SRB assay; assay type: functional, BT-549
# [15] = Cytotoxicity against human NCI-ADR-RES cells assessed as growth level at 10 uM after 48 hrs by SRB assay; assay type: functional
# [16] = Cytotoxicity against human HL-60(TB) cells assessed as growth level at 10 uM after 48 hrs by SRB assay; assay type: functional
# [17] = test system: M14; experiment: Cytotoxicity against human M14 cells assessed as growth level at 10 uM after 48 hrs by SRB assay; assay type: functional
# [18] = test system: NCI-H226; experiment: Cytotoxicity against human NCI-H226 cells assessed as growth level at 10 uM after 48 hrs by SRB assay; assay type: functional
# [19] = Cytotoxicity against human OVCAR4 cells assessed as growth level at 10 uM after 48 hrs by SRB assay; assay type: functional, OVCAR-4
# [20] = test system: A498; experiment: Cytotoxicity against human A498 cells assessed as growth level at 10 uM after 48 hrs by SRB assay; assay type: functional
# [21] = test system: SK-MEL-28; experiment: Cytotoxicity against human SK-MEL-28 cells assessed as growth level at 10 uM after 48 hrs by SRB assay; assay type: functional
# [22] = test system: U-251; experiment: Cytotoxicity against human U251 cells assessed as growth level at 10 uM after 48 hrs by SRB assay; assay type: functional
# [23] = Cytotoxicity against human HCT15 cells assessed as growth inhibition at 10 uM after 48 hrs by SRB assay; assay type: functional; conditions: HCT-15, 48 h, read-out: GI
# [24] = test system: ACHN; experiment: Cytotoxicity against human ACHN cells assessed as growth inhibition at 10 uM after 48 hrs by SRB assay; assay type: functional; conditions: read-out: GI
# [25] = Cytotoxicity against human SNB19 cells assessed as growth inhibition at 10 uM after 48 hrs by SRB assay; assay type: functional; conditions: SNB-19, 48 h, read-out: GI
# [26] = test system: A498; experiment: Cytotoxicity against human A498 cells assessed as growth inhibition at 10 uM after 48 hrs by SRB assay; assay type: functional; conditions: A498, 48 h, read-out: GI
# [27] = test system: U-251; experiment: Cytotoxicity against human U251 cells assessed as growth inhibition at 10 uM after 48 hrs by SRB assay; assay type: functional; conditions: U-251, 48 h, read-out: GI
# [28] = Cytotoxicity against human PC3 cells assessed as growth inhibition at 10 uM after 48 hrs by SRB assay; assay type: functional; conditions: PC-3, 48 h, read-out: GI
# [29] = test system: CCRF-CEM; experiment: Cytotoxicity against human CCRF-CEM cells assessed as growth inhibition at 10 uM after 48 hrs by SRB assay; assay type: functional; conditions: read-out: GI
# [30] = Cytotoxicity against human COLO205 cells assessed as growth inhibition at 10 uM after 48 hrs by SRB assay; assay type: functional; conditions: COLO 205, 48 h, read-out: GI
# [31] = Cytotoxicity against human OVCAR8 cells assessed as growth inhibition at 10 uM after 48 hrs by SRB assay; assay type: functional; conditions: OVCAR-8, 48 h, read-out: GI
# [32] = Cytotoxicity against human MOLT4 cells assessed as growth inhibition at 10 uM after 48 hrs by SRB assay; assay type: functional; conditions: MOLT-4, 48 h, read-out: GI
# [33] = test system: Malme-3M; experiment: Cytotoxicity against human MALME-3M cells assessed as growth inhibition at 10 uM after 48 hrs by SRB assay; assay type: functional; conditions: read-out: GI
# [34] = test system: NCI-H322M; experiment: Cytotoxicity against human NCI-H322M cells assessed as growth inhibition at 10 uM after 48 hrs by SRB assay; assay type: functional; conditions: read-out: GI
# [35] = test system: SK-MEL-28; experiment: Cytotoxicity against human SK-MEL-28 cells assessed as growth inhibition at 10 uM after 48 hrs by SRB assay; assay type: functional; conditions: SK-MEL-28, 48 h, read-out: GI
# [36] = Cytotoxicity against human RPMI8226 cells assessed as growth inhibition at 10 uM after 48 hrs by SRB assay; assay type: functional; conditions: RPMI-8226, 48 h, read-out: GI
# [37] = Cytotoxicity against human UACC257 cells assessed as growth inhibition at 10 uM after 48 hrs by SRB assay; assay type: functional; conditions: UACC-257, 48 h, read-out: GI
# [38] = test system: MDA-MB-468; experiment: Cytotoxicity against human MDA-MB-468 cells assessed as growth inhibition at 10 uM after 48 hrs by SRB assay; assay type: functional; conditions: MDA-MB-468, 48 h, read-out: GI
# [39] = test system: K562; experiment: Cytotoxicity against human K562 cells assessed as growth inhibition at 10 uM after 48 hrs by SRB assay; assay type: functional; conditions: K562, 48 h, read-out: GI
# [40] = test system: MDA-MB-435; experiment: Cytotoxicity against human MDA-MB-435 cells assessed as growth inhibition at 10 uM after 48 hrs by SRB assay; assay type: functional; conditions: MDA-MB-435, 48 h, read-out: GI
# [41] = Cytotoxicity against human SW620 cells assessed as growth inhibition at 10 uM after 48 hrs by SRB assay; assay type: functional; conditions: SW-620, 48 h, read-out: GI
compound,measurement,setting,value
C=C1CC[C@@H]2[C@](C)(COC(C)=O)[C@H](OC(C)=O)CC[C@@]2(C)[C@@H]1CC(Nc1ccc(S(=O)(=O)NC(C)=O)cc1)C1=CCOC1=O (mixture of isomers),Activity,[1],7.36%
same,Activity,[2],-66.04%
same,Activity,[3],26.28%
same,Activity,[4],1.94%
same,Activity,[5],-53.94%
same,Activity,[6],-63.92%
same,Activity,[7],-43.58%
same,Activity,[8],-85.84%
same,Activity,[9],-27.89%
same,Activity,[10],-12.47%
same,Activity,[11],58.44%
same,Activity,[12],0.37%
same,Activity,[13],-65.65%
same,Activity,[14],-62.63%
same,Activity,[15],11.87%
same,Activity,[16],-31.09%
same,Activity,[17],-35.08%
same,Activity,[18],-52.34%
same,Activity,[19],26.08%
same,Activity,[20],73.42%
same,Activity,[21],-36.62%
same,Activity,[22],-65.49%
C=C1CC[C@@H]2[C@](C)(CO)[C@H](O)CC[C@@]2(C)[C@@H]1C/C=C1/C(=O)OC[C@H]1O [ANDROGRAPHOLIDE],inhibition of growth at 10 µM,[23],38.1%
same,Activity,[1],97.89%
same,Activity,[2],84.71%
same,Activity,[3],61.95%
same,inhibition of growth at 10 µM,[24],10.2%
same,inhibition of growth at 10 µM,[25],12%
same,inhibition of growth at 10 µM,[26],12.2%
same,Activity,[4],81.73%
same,Activity,[5],42%
same,Activity,[6],60.01%
same,inhibition of growth at 10 µM,[27],24.2%
same,Activity,[7],99.78%
same,Activity,[8],21.84%
same,inhibition of growth at 10 µM,[28],6.6%
same,Activity,[9],23.48%
same,inhibition of growth at 10 µM,[29],76.5%
same,inhibition of growth at 10 µM,[30],5.1%
same,Activity,[10],69.92%
same,Activity,[11],113.89%
same,Activity,[12],80.06%
same,Activity,[13],44.29%
same,inhibition of growth at 10 µM,[31],15.5%
same,Activity,[14],87.11%
same,inhibition of growth at 10 µM,[32],1.89%
same,Activity,[15],83.75%
same,Activity,[16],100.04%
same,inhibition of growth at 10 µM,[33],0.22%
same,Activity,[17],84.88%
same,Activity,[18],91.74%
same,Activity,[19],82.87%
same,inhibition of growth at 10 µM,[34],7.26%
same,inhibition of growth at 10 µM,[35],4.54%
same,inhibition of growth at 10 µM,[36],16.7%
same,inhibition of growth at 10 µM,[37],23.5%
same,Activity,[20],87.79%
same,inhibition of growth at 10 µM,[38],58%
same,inhibition of growth at 10 µM,[39],34.5%
same,Activity,[21],95.46%
same,inhibition of growth at 10 µM,[40],27.4%
same,Activity,[22],75.79%
same,inhibition of growth at 10 µM,[41],55.7%
C=C1CC[C@@H]2[C@](C)(COC(C)=O)[C@H](OC(C)=O)CC[C@@]2(C)[C@@H]1CC(Sc1ccccc1)C1=CCOC1=O (mixture of isomers),Activity,[1],24.46%
same,Activity,[2],-31.19%
same,Activity,[3],86.98%
same,Activity,[4],1.3%
same,Activity,[5],-61.07%
same,Activity,[6],-34.58%
same,Activity,[7],16.83%
same,Activity,[8],-83.89%
same,Activity,[9],-5.24%
same,Activity,[10],-1.75%
same,Activity,[11],65.88%
same,Activity,[12],16.39%
same,Activity,[13],0.83%
same,Activity,[14],-22.62%
same,Activity,[15],10.07%
same,Activity,[16],-46.54%
same,Activity,[17],-4.19%
same,Activity,[18],-9.88%
same,Activity,[19],100.23%
same,Activity,[20],86.34%
same,Activity,[21],6.34%
same,Activity,[22],22.94%
